Assay results published in patent US10487117B2, “Antimicrobial peptide for nosocomial infections” (priority 2015, dated 2019).
Residues, ends and D or L forms follow the SMILES beside them.

Assays:
[1] = tested on: LPS (lipopolysaccharides) from P. aeruginosa; experiment: LPS binding assay, BODIPY TR cadaverine (BC) displacement; design: species or system Pseudomonas aeruginosa; details: 100% = total displacement of the dye; mean ± SEM
Description: Following, LPS binding affinity was monitored by a fluorometric assay which measures the competitive displacement of a cadaverine fluorescent probe (BC) by the protein and peptides. The half LPS binding affinity (ED50), defined as the AMP concentration needed to achieve half of BC displacement, and the total LPS binding affinity, expressed as a percentage, were determined (Table 4). Interaction with negatively charged surfaces of bacteria is the first step for cationic peptides to reach the bacterial membranes and exert their antimicrobial action.
LPS binding was assessed using the fluorescent probe BODIPY TR cadaverine (BC) as previously described (Pulido D. et al. Febs J 2013). BC binds strongly to native LPS, specifically recognizing the lipid A portion. When a protein that interacts with LPS is added, BC is displaced from the complex and its fluorescence is increased, decreasing its occupancy factor. LPS-binding assays were carried out in a 10 mM Hepes buffer at pH 7.5. The displacement assay was performed using a 96 well microtiter plate containing stirred mixture of either LPS (10 μg/mL) and BC (10 μM). Protein/peptides were serially diluted from 10 to 0.1 μM. Fluorescence measurements were performed on a Victor3 plate reader (Perkin Elmer, Waltham, Mass.). The protein/peptide concentration required to achieve half of total and total BC displacement was estimated from nonlinear regression analysis as previously described (Wood S. J. et al. 2004)

[2] = tested on: pre-established P. aeruginosa biofilm; experiment: Biofilm cell mortality, BacTiter-Glo luminescent assay; type: cell-based, Pseudomonas aeruginosa; details: 24 h formed biofilm; 4 h at 37° C.; 10% Triton X-100 as maximum reference; N.D. = not detected at 50 μM

**Q.** With `CC[C@H](C)[C@H](NC(=O)CNC(=O)[C@@H](NC(=O)[C@H](CCCCN)NC(=O)[C@H](CCCCN)NC(=O)[C@H](Cc1ccccc1)NC(=O)[C@H](CC(C)C)NC(=O)[C@H](CCCCN)NC(=O)[C@H](Cc1c[nH]c2ccccc12)NC(=O)[C@@H](N)CCCCN)[C@@H](C)CC)C(=O)NCC(=O)N[C@@H](C)C(=O)N[C@H](C(=O)N[C@@H](CC(C)C)C(=O)N[C@@H](CCCCN)C(=O)N[C@H](C(=O)N[C@@H](CC(C)C)C(=O)N[C@H](C(=O)N[C@H](C(=O)NCC(=O)N[C@@H](CC(C)C)C(=O)N1CCC[C@H]1C(=O)N[C@@H](C)C(=O)N[C@@H](CC(C)C)C(=O)N[C@H](C(=O)N[C@@H](CO)C(N)=O)[C@@H](C)CC)[C@@H](C)O)[C@@H](C)O)C(C)C)C(C)C` [CA-M] as the compound, how does the “LPS binding %max (percentage of maximum displacement)” value [1] read?
**A.** 69.16 ± 6.23%

**Q.** Which “Biofilm cell mortality (%max)” value [2] does the source give for `CC[C@H](C)[C@H](NC(=O)[C@H](CCC(N)=O)NC(=O)CN)C(=O)N[C@H](C(=O)N[C@@H](CC(N)=O)C(=O)N[C@@H](CC(C)C)C(=O)N[C@@H](CCCCN)C(=O)N[C@@H](C)C(=O)N[C@@H](CO)C(=O)N[C@@H](CC(C)C)C(=O)N[C@@H](CC(=O)O)C(=O)N[C@@H](CC(C)C)C(=O)N[C@@H](CC(C)C)C(N)=O)[C@@H](C)CC` [GL-13, GQIINLKASLDLL-NH2] (H-GQIINLKASLDLL-NH2) here?
**A.** unable to perform any cell mortality

**Q.** What about the “LPS binding %max (percentage of maximum displacement)” value [1] of the same compound?
**A.** 44.37 ± 3.84%
